Measurements published in the NIST ThermoML archive (doi:10.1016/j.fluid.2013.10.029).
± gives the expanded uncertainty stated by the source.

How the values were obtained:
[1] = xn = mol fraction of the nth substance listed; conditions: 101.33 kPa, Liquid, Vibrating tube method
[2] = excess molar enthalpy (molar enthalpy of mixing); xn = mol fraction of the nth substance listed; conditions: 298.15 K, 101 kPa, Liquid, isothermal titration calorimeter

c1cc[nH]c1 [pyrrole] + c1ccncc1
mass density [kg/m3], [1]
Conditions | 298.15 K | 308.15 K | 318.15 K | 328.15 K | 338.15 K
x1 = 0.0735 | 977.37 ± 0.11 | 967.47 ± 0.11 | 957.53 ± 0.11 | 947.53 ± 0.11 | 937.46 ± 0.11
x1 = 0.1006 | 977.04 ± 0.11 | 967.22 ± 0.11 | 957.34 ± 0.11 | 947.41 ± 0.11 | 937.4 ± 0.11
x1 = 0.1428 | 976.57 ± 0.11 | 966.85 ± 0.11 | 957.07 ± 0.11 | 947.23 ± 0.11 | 937.32 ± 0.11
x1 = 0.1978 | 975.9 ± 0.11 | 966.3 ± 0.11 | 956.66 ± 0.11 | 946.95 ± 0.11 | 937.15 ± 0.11
x1 = 0.2273 | 975.56 ± 0.11 | 966.03 ± 0.11 | 956.45 ± 0.11 | 946.8 ± 0.11 | 937.07 ± 0.12
x1 = 0.3021 | 974.44 ± 0.11 | 965.06 ± 0.11 | 955.63 ± 0.11 | 946.12 ± 0.11 | 936.52 ± 0.12
x1 = 0.3704 | 973.5 ± 0.11 | 964.22 ± 0.11 | 954.89 ± 0.11 | 945.49 ± 0.11 | 936.01 ± 0.12
x1 = 0.4409 | 972.25 ± 0.11 | 963.08 ± 0.11 | 953.85 ± 0.11 | 944.54 ± 0.11 | 935.14 ± 0.12
x1 = 0.5426 | 970.64 ± 0.11 | 961.59 ± 0.11 | 952.47 ± 0.11 | 943.27 ± 0.11 | 933.99 ± 0.12
x1 = 0.6168 | 969.44 ± 0.11 | 960.46 ± 0.11 | 951.41 ± 0.11 | 942.28 ± 0.11 | 933.06 ± 0.12
x1 = 0.682 | 968.6 ± 0.11 | 959.68 ± 0.11 | 950.68 ± 0.11 | 941.6 ± 0.12 | 932.43 ± 0.12
x1 = 0.7554 | 967.69 ± 0.11 | 958.82 ± 0.11 | 949.87 ± 0.11 | 940.85 ± 0.12 | 931.72 ± 0.12
x1 = 0.8374 | 966.69 ± 0.11 | 957.88 ± 0.11 | 948.98 ± 0.11 | 939.99 ± 0.12 | 930.91 ± 0.12
x1 = 0.9063 | 966.15 ± 0.11 | 957.38 ± 0.11 | 948.53 ± 0.11 | 939.58 ± 0.12 | 930.54 ± 0.12
x1 = 0.9591 | 965.77 ± 0.11 | 957.04 ± 0.11 | 948.21 ± 0.11 | 939.3 ± 0.12 | 930.28 ± 0.12
x1 = 1 | 965.54 ± 0.11 | 956.83 ± 0.11 | 948.03 ± 0.11 | 939.14 ± 0.12 | 930.13 ± 0.12

[2]
Conditions | excess molar enthalpy [kcal/mol]
x1 = 0.03 | -0.0466 ± 0.0021
x1 = 0.06 | -0.106 ± 0.00239
x1 = 0.0898 | -0.164 ± 0.00287
x1 = 0.1197 | -0.22 ± 0.00335
x1 = 0.1497 | -0.274 ± 0.00382
x1 = 0.1797 | -0.326 ± 0.0043
x1 = 0.2096 | -0.375 ± 0.00502
x1 = 0.2395 | -0.422 ± 0.0055
x1 = 0.2695 | -0.466 ± 0.00598
x1 = 0.2994 | -0.505 ± 0.00645
x1 = 0.3295 | -0.541 ± 0.00693
x1 = 0.3594 | -0.572 ± 0.00717
x1 = 0.3895 | -0.597 ± 0.00741
x1 = 0.4195 | -0.616 ± 0.00765
x1 = 0.4495 | -0.629 ± 0.00789
x1 = 0.4795 | -0.634 ± 0.00789
x1 = 0.4832 | -0.637 ± 0.00789
x1 = 0.4902 | -0.637 ± 0.00789
x1 = 0.5095 | -0.633 ± 0.00789
x1 = 0.5202 | -0.633 ± 0.00789
x1 = 0.5396 | -0.625 ± 0.00789
x1 = 0.5502 | -0.622 ± 0.00765
x1 = 0.5696 | -0.61 ± 0.00765
x1 = 0.5802 | -0.604 ± 0.00765
x1 = 0.5906 | -0.595 ± 0.00741
x1 = 0.6102 | -0.58 ± 0.00717
x1 = 0.6402 | -0.551 ± 0.00693
x1 = 0.6702 | -0.517 ± 0.00645
x1 = 0.7002 | -0.479 ± 0.00621
x1 = 0.7302 | -0.437 ± 0.00574
x1 = 0.7602 | -0.393 ± 0.00502
x1 = 0.7901 | -0.347 ± 0.00454
x1 = 0.8201 | -0.298 ± 0.00406
x1 = 0.8501 | -0.249 ± 0.00359
x1 = 0.8801 | -0.198 ± 0.00311
x1 = 0.9101 | -0.147 ± 0.00263
x1 = 0.9401 | -0.0953 ± 0.00215
x1 = 0.9701 | -0.0432 ± 0.00184

c1cc[nH]c1 [pyrrole] + c1ccccc1
[2]
Conditions | excess molar enthalpy [kcal/mol]
x1 = 0.015 | 0.017 ± 0.000884
x1 = 0.03 | 0.0293 ± 0.000932
x1 = 0.0448 | 0.0406 ± 0.000956
x1 = 0.0597 | 0.0508 ± 0.00098
x1 = 0.0747 | 0.0604 ± 0.00105
x1 = 0.0896 | 0.0691 ± 0.0011
x1 = 0.1045 | 0.0773 ± 0.00117
x1 = 0.1193 | 0.0847 ± 0.00124
x1 = 0.1343 | 0.0917 ± 0.00131
x1 = 0.1493 | 0.0981 ± 0.00136
x1 = 0.1642 | 0.104 ± 0.00143
x1 = 0.1792 | 0.109 ± 0.00148
x1 = 0.1942 | 0.115 ± 0.00153
x1 = 0.2092 | 0.119 ± 0.0016
x1 = 0.2242 | 0.123 ± 0.00165
x1 = 0.2392 | 0.127 ± 0.00167
x1 = 0.2542 | 0.131 ± 0.00172
x1 = 0.2691 | 0.134 ± 0.00174
x1 = 0.284 | 0.136 ± 0.00179
x1 = 0.299 | 0.139 ± 0.00182
x1 = 0.314 | 0.141 ± 0.00184
x1 = 0.329 | 0.143 ± 0.00186
x1 = 0.344 | 0.144 ± 0.00186
x1 = 0.359 | 0.145 ± 0.00189
x1 = 0.374 | 0.146 ± 0.00189
x1 = 0.389 | 0.147 ± 0.00191
x1 = 0.404 | 0.148 ± 0.00191
x1 = 0.419 | 0.148 ± 0.00191
x1 = 0.434 | 0.148 ± 0.00191
x1 = 0.449 | 0.148 ± 0.00191
x1 = 0.464 | 0.147 ± 0.00191
x1 = 0.479 | 0.146 ± 0.00189
x1 = 0.494 | 0.146 ± 0.00189
x1 = 0.5091 | 0.144 ± 0.00186
x1 = 0.5241 | 0.143 ± 0.00186
x1 = 0.5391 | 0.142 ± 0.00184
x1 = 0.5541 | 0.14 ± 0.00182
x1 = 0.5613 | 0.14 ± 0.00182
x1 = 0.5683 | 0.139 ± 0.00182
x1 = 0.5692 | 0.138 ± 0.00179
x1 = 0.583 | 0.137 ± 0.00227
x1 = 0.5842 | 0.136 ± 0.00225
x1 = 0.5977 | 0.135 ± 0.00222
x1 = 0.5993 | 0.133 ± 0.0022
x1 = 0.6122 | 0.133 ± 0.00215
x1 = 0.6143 | 0.131 ± 0.00213
x1 = 0.6267 | 0.131 ± 0.00172
x1 = 0.6411 | 0.129 ± 0.0017
x1 = 0.6554 | 0.126 ± 0.00165
x1 = 0.6696 | 0.124 ± 0.00163
x1 = 0.6838 | 0.121 ± 0.0016
x1 = 0.6978 | 0.118 ± 0.00155
x1 = 0.7118 | 0.114 ± 0.00153
x1 = 0.7257 | 0.111 ± 0.00148
x1 = 0.7395 | 0.107 ± 0.00143
x1 = 0.7533 | 0.104 ± 0.00141
x1 = 0.7669 | 0.0996 ± 0.00136
x1 = 0.7805 | 0.0956 ± 0.00131
x1 = 0.794 | 0.0913 ± 0.00127
x1 = 0.8074 | 0.0868 ± 0.00122
x1 = 0.8208 | 0.0822 ± 0.00117
x1 = 0.8341 | 0.0774 ± 0.00112
x1 = 0.8473 | 0.0726 ± 0.00108
x1 = 0.8604 | 0.0674 ± 0.001
x1 = 0.8735 | 0.0622 ± 0.000956
x1 = 0.8865 | 0.0567 ± 0.000908
x1 = 0.8993 | 0.0511 ± 0.00086
x1 = 0.9121 | 0.0452 ± 0.000813
x1 = 0.9249 | 0.0392 ± 0.000765
x1 = 0.9377 | 0.0331 ± 0.000717
x1 = 0.9502 | 0.0269 ± 0.000669
x1 = 0.9628 | 0.0203 ± 0.000645
x1 = 0.9753 | 0.0138 ± 0.000621
x1 = 0.9877 | 0.00698 ± 0.000598
